Source: PubChem BioAssay (NCI)
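The compound was tested at five concentrations on cells cultured in 96-well plates, with a 48-hour exposure period. The concentration for 50% growth inhibition is given as GI50. TGI marks complete inhibition of growth.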

Tests used:
Assay in all cases: NCI tumour cell line growth inhibition, 48 h
[1] = test system: ACHN renal
[2] = test system: EKVX NSCLC
[3] = test system: HCT-116 colon
[4] = test system: HCT-15 colon
[5] = test system: MCF7 breast
[6] = test system: SK-MEL-28 melanoma
[7] = test system: SNB-19 CNS
[8] = test system: SR leukemia
[9] = test system: CAKI-1 renal
[10] = test system: NCI-H522 lung

Compound: CC(C)CC(=O)O[C@H]1C(=O)O[C@@H]2C[C@H]3[C@H](C)C(=O)C(O[C@@H]4O[C@H](CO)[C@@H](O)[C@H](O)[C@H]4O)=C[C@]3(C)[C@H]3[C@@H](O)[C@H](O)[C@]4(C(=O)O)OC[C@]32[C@@H]14
- GI50 [1]: > 100 µM
- TGI [1]: > 100 µM
- GI50 [2]: > 100 µM
- TGI [2]: > 100 µM
- GI50 [3]: 32.8 µM
- TGI [3]: > 100 µM
- GI50 [4]: > 100 µM
- TGI [4]: > 100 µM
- GI50 [5]: 28 µM
- TGI [5]: > 100 µM
- GI50 [6]: 25.2 µM
- TGI [6]: > 100 µM
- GI50 [7]: 31.9 µM
- TGI [7]: > 100 µM
- GI50 [8]: 33.6 µM
- TGI [8]: > 100 µM

Compound: C=C1C(=O)O[C@H]2[C@H]1CC/C(COC(=O)NCc1ccc(Cn3c(=O)sn(CCCI)c3=O)cc1)=C\CC[C@@]1(C)O[C@@H]21
- GI50 [1]: 1.7 µM
- TGI [1]: 3.19 µM
- GI50 [9]: 1.7 µM
- TGI [9]: 3.29 µM
- GI50 [2]: 2.09 µM
- TGI [2]: 6.77 µM
- GI50 [3]: 1.05 µM
- TGI [3]: 2.57 µM
- GI50 [4]: 1.89 µM
- TGI [4]: 3.68 µM
- GI50 [5]: 1.41 µM
- TGI [5]: 3.24 µM
- GI50 [10]: 1.07 µM
- TGI [10]: 2.39 µM
- GI50 [6]: 1.92 µM
- TGI [6]: 3.79 µM
- GI50 [7]: 3.12 µM
- TGI [7]: 13.8 µM

Compound: COc1cc(Br)c(C2OCCCO2)cc1OCc1ccccc1
- TGI [1]: > 100 µM
- TGI [2]: > 100 µM
- TGI [3]: > 100 µM
- TGI [4]: > 100 µM
- TGI [10]: > 100 µM
- TGI [6]: > 100 µM
- TGI [7]: > 100 µM

Compound: C/C(=N\NC(N)=S)c1ccc(Oc2ccccc2)cc1
- TGI [1]: 42.7 µM
- TGI [2]: 50.4 µM
- TGI [3]: 22.6 µM
- TGI [4]: 22.5 µM
- TGI [6]: 33.2 µM
- TGI [7]: 84.5 µM

Compound: O=P(c1ccccc1)(c1ccccc1)C1CC=C2CCCCCC2C1 (configuration not stated)
- TGI [9]: 69.5 µM
- TGI [2]: > 100 µM
- TGI [3]: 40.3 µM
- TGI [4]: > 100 µM
- TGI [10]: 41 µM
- TGI [6]: > 10 µM
- TGI [7]: 81.6 µM

Compound: BrC(/C=N/Nc1nnc(-c2ccccc2)c(-c2ccccc2)n1)C(Br)c1ccccc1 (configuration not stated)
- TGI [1]: > 100 µM
- TGI [9]: > 100 µM
- TGI [2]: > 100 µM
- TGI [4]: > 100 µM
- TGI [10]: 54.1 µM
- TGI [6]: > 100 µM
- TGI [7]: > 100 µM

Compound: COc1ccc2c(c1)OCC1c3cc(OC)ccc3OC21 (configuration not stated)
- GI50 [1]: 53.1 µM
- TGI [1]: > 100 µM
- GI50 [9]: 29.5 µM
- TGI [9]: > 100 µM
- GI50 [2]: 32.6 µM
- TGI [2]: > 100 µM
- GI50 [3]: 47.5 µM
- TGI [3]: > 100 µM
- GI50 [4]: 44.9 µM
- TGI [4]: > 100 µM
- GI50 [5]: 38.7 µM
- TGI [5]: > 100 µM
- GI50 [6]: 91.2 µM
- TGI [6]: > 100 µM
- GI50 [7]: > 100 µM
- TGI [7]: > 100 µM
- GI50 [8]: 1.44 µM
- TGI [8]: 29.6 µM

Compound: COc1ccc2c(c1)c(-c1nc(-c3cn(C)c4ncccc34)cs1)cn2CCCCN1CCCCC1
- GI50 [1]: 1.65 µM
- TGI [1]: 3 µM
- GI50 [2]: 1.66 µM
- TGI [2]: 3.18 µM
- GI50 [4]: 1.45 µM
- TGI [4]: 2.8 µM
- GI50 [6]: 1.74 µM
- TGI [6]: 3.16 µM

Compound: CCc1cccc(CC)c1NC1=CC(=O)C(=O)c2ccccc21
- TGI [1]: 26 µM
- TGI [9]: 44.3 µM
- TGI [2]: 27.9 µM
- TGI [3]: 34.8 µM
- TGI [4]: 57.7 µM
- TGI [10]: 28.3 µM
- TGI [6]: 37.4 µM
- TGI [7]: 63.3 µM
- TGI [8]: > 100 µM

Compound: Cc1nn(-c2ccccc2)c2c1[C@@H](C)[C@H]1CC3(CC4(C)C[C@@H]3C1(C)c1c(C)nn(-c3ccccc3)c1N4C)N2C (some centres not stated)
- GI50 [5]: 3.46 µM
- TGI [5]: > 100 µM
- GI50 [10]: 3.88 µM
- TGI [10]: > 100 µM
- GI50 [6]: 31.4 µM
- TGI [6]: > 100 µM
- GI50 [7]: > 100 µM
- TGI [7]: > 100 µM

Compound: Cc1cc(Br)ccc1N=NC1C(=O)ON=C1c1ccccc1 (configuration not stated)
- TGI [1]: > 100 µM
- TGI [2]: > 100 µM
- TGI [3]: > 100 µM
- TGI [10]: > 100 µM
- TGI [6]: > 100 µM
- TGI [7]: > 100 µM
- TGI [8]: > 100 µM

Compound: CC(=O)[O-].O=C([CH-]C(=O)c1ccccc1)c1ccccc1.O=C([CH-]C(=O)c1ccccc1)c1ccccc1.[Dy+3]
- GI50 [1]: 14.3 µM
- TGI [1]: > 100 µM
- GI50 [9]: 17 µM
- TGI [9]: 50.3 µM
- GI50 [2]: 9.62 µM
- TGI [2]: 42.6 µM
- GI50 [3]: 5.75 µM
- TGI [3]: 23.1 µM
- GI50 [10]: 10.4 µM
- TGI [10]: 36.9 µM
- GI50 [6]: 15.4 µM
- TGI [6]: 51.4 µM
- GI50 [7]: 14.8 µM
- TGI [7]: 70.3 µM

Compound: CCCCCCCCCCCCCCCCCCCCCCC(=O)N[C@H]1CCc2cc(OC)c(OC)c(OC)c2-c2ccc(SC)c(=O)cc21
- TGI [1]: > 100 µM
- TGI [9]: > 100 µM
- TGI [2]: > 100 µM
- TGI [3]: 69.3 µM
- TGI [4]: 71 µM
- TGI [10]: 33.1 µM
- TGI [6]: > 100 µM
- TGI [7]: > 100 µM
- TGI [8]: 81.9 µM

Compound: CC1SC(c2ccc(OCc3ccccc3)cc2)N(NC(=O)C(O)(c2ccccc2)c2ccccc2)C1=O (configuration not stated)
- GI50 [1]: 2.74 µM
- TGI [1]: 9.38 µM
- GI50 [9]: 2.49 µM
- TGI [9]: 8.6 µM
- GI50 [2]: 5.49 µM
- TGI [2]: 22.5 µM
- GI50 [3]: 1.76 µM
- TGI [3]: 4.71 µM
- GI50 [4]: 2.74 µM
- TGI [4]: 12.7 µM
- GI50 [5]: 4.37 µM
- TGI [5]: 22.4 µM
- GI50 [6]: 4.44 µM
- TGI [6]: 16.3 µM
- GI50 [7]: 5 µM
- TGI [7]: 21.5 µM

Compound: O=C(CNC(=O)c1cccc2ccccc12)Nc1ccccc1Oc1ccc(O)cc1
- GI50 [1]: 1.86 µM
- TGI [1]: > 25 µM
- GI50 [2]: 1.17 µM
- TGI [2]: > 25 µM
- GI50 [3]: 0.978 µM
- TGI [3]: > 25 µM
- GI50 [4]: 0.909 µM
- TGI [4]: > 25 µM
- GI50 [5]: 0.847 µM
- TGI [5]: > 25 µM
- GI50 [10]: 0.852 µM
- TGI [10]: > 25 µM
- GI50 [6]: > 25 µM
- TGI [6]: > 25 µM
- GI50 [7]: 1.42 µM
- TGI [7]: > 25 µM
- GI50 [8]: 0.459 µM
- TGI [8]: > 25 µM

Compound: C=CC(C)(C)[C@@]12CC3C(=O)N[C@@H](Cc4ccccc4)C(=O)N3[C@@H]1N(C(C)=O)c1ccccc12 (some centres not stated)
- TGI [1]: > 100 µM
- TGI [2]: > 100 µM
- TGI [3]: > 100 µM
- TGI [4]: > 100 µM
- TGI [6]: > 100 µM
- TGI [7]: > 100 µM
- TGI [8]: > 100 µM

Compound: CC(=O)Nc1ccc(/C=C/C(=O)c2sc(-n3nc(-c4ccccc4)cc3-c3ccccc3)nc2C)cc1
- GI50 [1]: > 100 µM
- TGI [1]: > 100 µM
- GI50 [9]: > 100 µM
- TGI [9]: > 100 µM
- GI50 [2]: > 100 µM
- TGI [2]: > 100 µM
- GI50 [3]: > 100 µM
- TGI [3]: > 100 µM
- TGI [10]: > 100 µM
- GI50 [6]: > 100 µM
- TGI [6]: > 100 µM
- GI50 [7]: > 100 µM
- TGI [7]: > 100 µM

Compound: O=C1N(c2ccccc2)C2(O)C(=O)c3ccccc3C2(O)N1c1ccccc1 (configuration not stated)
- TGI [1]: > 100 µM
- TGI [9]: > 100 µM
- TGI [2]: > 100 µM
- TGI [3]: > 100 µM
- TGI [4]: > 100 µM
- TGI [10]: > 100 µM
- TGI [6]: > 100 µM
- TGI [7]: > 100 µM
- TGI [8]: > 100 µM

Compound: O=c1ccn([C@@H]2C[C@H](CO)CS(=O)C2)c(=O)[nH]1 (some centres not stated)
- TGI [1]: > 100 µM
- TGI [9]: > 100 µM
- TGI [2]: > 100 µM
- TGI [3]: > 100 µM
- TGI [4]: > 100 µM
- TGI [10]: > 100 µM
- TGI [6]: > 100 µM
- TGI [7]: > 100 µM

Compound: CCOc1ccc(/C=C/C(=O)c2sc(NNC(C)=O)nc2C)cc1
- TGI [1]: > 100 µM
- TGI [9]: > 100 µM
- TGI [2]: > 100 µM
- TGI [4]: > 100 µM
- TGI [10]: > 100 µM
- TGI [6]: > 100 µM
- TGI [7]: > 100 µM
